The target in this assay is T1, human URAT1 (Homo sapiens, UniProt Q96S37).
T1 construct: Full-length cDNA of human URAT1 (hURAT1)
T1 sequence (Q96S37 1-553): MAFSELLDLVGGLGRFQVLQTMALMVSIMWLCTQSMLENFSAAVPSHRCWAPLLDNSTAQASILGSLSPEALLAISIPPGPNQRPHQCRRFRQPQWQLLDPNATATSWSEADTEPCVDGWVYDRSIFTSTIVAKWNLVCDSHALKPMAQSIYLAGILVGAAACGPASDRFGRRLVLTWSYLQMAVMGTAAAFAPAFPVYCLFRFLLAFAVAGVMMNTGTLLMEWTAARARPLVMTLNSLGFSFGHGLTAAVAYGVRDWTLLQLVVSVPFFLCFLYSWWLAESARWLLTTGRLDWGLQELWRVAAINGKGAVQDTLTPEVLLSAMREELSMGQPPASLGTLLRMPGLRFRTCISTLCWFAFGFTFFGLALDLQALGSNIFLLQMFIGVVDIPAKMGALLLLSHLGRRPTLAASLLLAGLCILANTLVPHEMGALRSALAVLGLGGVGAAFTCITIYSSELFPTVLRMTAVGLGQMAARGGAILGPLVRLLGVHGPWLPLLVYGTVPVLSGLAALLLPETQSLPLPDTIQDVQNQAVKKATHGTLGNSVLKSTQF
The assay can be described thus: Test for inhibition of uric acid transport using human URAT1-expressing cells.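 On all read-outs here: three stars up to 0.2 µM two stars 0.2-2 µM one star 2-20 µM.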 The assay is classed as cell-based. Particulars: HEK 293 cells expressing human URAT1, 14C-labeled uric acid 25 μM, uptake 37° C. for 5 min; for IC50: read-out: Inhibitory Activity (IC50 of uric acid transport inhibition). In short, it runs like this:
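HEK293 cells stably transfected with full-length hURAT1, preincubated 10 min at 37 °C in HBSS with NaCl replaced by Na gluconate. Uptake of 25 μM ¹⁴C-uric acid with compound ran 5 min at 37 °C, then scintillation counting. IC50 derived from % of DMSO-control URAT1-specific uptake.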

Experimental findings from patent US9637469B2, “Pyridine derivative” (Teijin Pharma Limited, priority 2012, dated 2017) are described below.

Turning to `O=C(O)c1c(C2CC2)nc(-c2cccnc2)n1Cc1cc(F)cc2ccsc12` [Compound A86, 4-cyclopropyl-1-((5-fluorobenzo[b]thiophen-7-yl)methyl)-2-(pyridin-3-yl)-1H-imidazole-5-carboxylic acid], the “Inhibitory Activity (IC50 of uric acid transport inhibition)” value (“Inhibitory Activity” for short) is “* * *”.

As for `Cc1nc(-c2cncc(F)c2)n(C(C)c2cc(Cl)ccc2Cl)c1C(=O)O` (stereo not shown) [Compound A222], the IC50 – broadly, the concentration at which inhibition is half-maximal – fell in the range of 2 to 20 µM.

With `O=C(O)c1ccc(-c2cncc(Cl)c2)n1Cc1cc(Cl)ccc1Cl` [Compound B17, 2-(5-chloropyridin-3-yl)-1-(2,5-dichlorobenzyl)-1H-pyrrole-5-carboxylic acid], the “Inhibitory Activity” value is “* * *”.

As for `Cc1cncc(-c2ccc(C(=O)O)n2Cc2csc3cccc(Cl)c23)c1` [Compound B15, 1-((4-chlorobenzo[b]thiophen-3-yl)methyl)-2-(5-methylpyridin-3-yl)-1H-pyrrole-5-carboxylic acid], the “Inhibitory Activity” value is “* * *”.

As to `CC(O)c1nc(-c2cncc(Cl)c2)n(Cc2cc(Cl)ccc2Cl)c1C(=O)O` (stereo not shown) [Compound A211, 2-(5-chloropyridin-3-yl)-1-(2,5-dichlorobenzyl)-4-(1-hydroxyethyl)-1H-imidazole-5-carboxylic acid], the “Inhibitory Activity” value is “* * *”.

As to `CSc1nc(-c2cccnc2)n(Cc2cc(Cl)ccc2Cl)c1C(=O)O` [Compound A104, 1-(2,5-dichlorobenzyl)-4-(methylthio)-2-(pyridin-3-yl)-1H-imidazole-5-carboxylic acid], the “Inhibitory Activity” value is “* * *”.

In the case of `CCCN1CCN(Cc2nc(-c3cncc(Cl)c3)n(Cc3cc(Cl)ccc3Cl)c2C(=O)O)CC1` [Compound A202, 2-(5-chloropyridin-3-yl)-1-(2,5-dichlorobenzyl)-4-((4-propylpiperazin-1-yl)methyl)-1H-imidazole-5-carboxylic acid], the “Inhibitory Activity” value was “* * *”.

As to `Cc1nc(-c2cccnc2)n(Cc2ccccc2C#N)c1C(=O)O` [Compound A64], the IC50 is 2 to 20 µM.

For the molecule `CCS(=O)(=O)N1CCN(Cc2nc(-c3cncc(Cl)c3)n(Cc3cc(Cl)ccc3Cl)c2C(=O)O)CC1` [Compound A204, 2-(5-chloropyridin-3-yl)-1-(2,5-dichlorobenzyl)-4-((4-(ethylsulfonyl)piperazin-1-yl)methyl)-1H-imidazole-5-carboxylic acid], the “Inhibitory Activity” value is “* * *”.

With `O=C(O)c1c(C2CC2)nc(-c2cccnc2)n1Cc1cccc2ccsc12` [Compound A82, 1-(benzo[b]thiophen-7-ylmethyl)-4-cyclopropyl-2-(pyridin-3-yl)-1H-imidazole-5-carboxylic acid], the “Inhibitory Activity” value was “* *”.

In the case of `COc1ccc(-c2nc(C)c(C(=O)O)n2Cc2cccc3ccccc23)c(OC)n1` [Compound A47], the IC50 lay within 2 to 20 µM.

For the molecule `O=C(O)c1ccc(-c2cncc(F)c2)n1Cc1cccc2ccsc12` [Compound B22, 1-(benzo[b]thiophen-7-ylmethyl)-2-(5-fluoropyridin-3-yl)-1H-pyrrole-5-carboxylic acid], the “Inhibitory Activity” value was “* * *”.

For `Cc1nc(-c2cncc(F)c2)n(Cc2csc3ccccc23)c1C(=O)O` [Compound A133, 1-(benzo[b]thiophen-3-ylmethyl)-2-(5-fluoropyridin-3-yl)-4-methyl-1H-imidazole-5-carboxylic acid], the “Inhibitory Activity” value was “* *”.

For the molecule `Cc1cncc(Oc2nc(C)c(C(=O)O)n2Cc2cc(Cl)ccc2Cl)c1` [Compound A255, 1-(2,5-dichlorobenzyl)-4-methyl-2-((5-methylpyridin-3-yl)oxy)-1H-imidazole-5-carboxylic acid], the “Inhibitory Activity” value was “* * *”.

For the molecule `CC(C)c1nc(-c2cncc(Cl)c2)n(Cc2cccc3ccccc23)c1C(=O)O` [Compound A144, 2-(5-chloropyridin-3-yl)-4-isopropyl-1-(naphthalen-1-ylmethyl)-1H-imidazole-5-carboxylic acid], the “Inhibitory Activity” value is “* * *”.

Regarding `Cc1nc(-c2cccnc2)n(Cc2cc(F)cc(Cl)c2)c1C(=O)O` [Compound A76, 1-(3-chloro-5-fluorobenzyl)-4-methyl-2-(pyridin-3-yl)-1H-imidazole-5-carboxylic acid], the “Inhibitory Activity” value is given as “* *”.

Take `O=C(O)c1c(-c2ccncc2)nc(-c2cccnc2)n1Cc1cc(Cl)ccc1Cl` [Compound A95]: the IC50 was 2 to 20 µM.

For `Cc1cccc2cccc(Cn3c(-c4cccnc4)nc(C(F)(F)F)c3C(=O)O)c12` [Compound A30], the IC50 was 2 to 20 µM.

Turning to `CC(C)c1nc(-c2cncc(Cl)c2)n(Cc2cc(Cl)ccc2Cl)c1C(=O)O` [Compound A146, 2-(5-chloropyridin-3-yl)-1-(2,5-dichlorobenzyl)-4-isopropyl-1H-imidazole-5-carboxylic acid], the “Inhibitory Activity” value is listed as “* * *”.

As for `NCc1nc(-c2cncc(Cl)c2)n(Cc2cc(Cl)ccc2Cl)c1C(=O)O` [Compound A201], the IC50 was in the range of 2 to 20 µM.

For `Cc1nc(Oc2cncc(Cl)c2)n(Cc2cc(Cl)ccc2Cl)c1C(=O)O` [Compound A250, 2-((5-chloropyridin-3-yl)oxy)-1-(2,5-dichlorobenzyl)-4-methyl-1H-imidazole-5-carboxylic acid], the “Inhibitory Activity” value is listed as “* * *”.

As for `Cc1ccc(-c2nc(C)c(C(=O)O)n2Cc2cc(Cl)ccc2Cl)cn1` [Compound A159, 1-(2,5-dichlorobenzyl)-4-methyl-2-(6-methylpyridin-3-yl)-1H-imidazole-5-carboxylic acid], the “Inhibitory Activity” value was “* *”.

For the molecule `O=C(O)c1c(Cn2cccn2)nc(-c2cncc(Cl)c2)n1Cc1cc(Cl)ccc1Cl` [Compound A200, 4-((1H-pyrazol-1-yl)methyl)-2-(5-chloropyridin-3-yl)-1-(2,5-dichlorobenzyl)-1H-imidazole-5-carboxylic acid], the “Inhibitory Activity” value is reported as “* * *”.

On to `Cc1nc(-c2cccnc2)n(Cc2ccc(F)c(Cl)c2)c1C(=O)O` [Compound A75], for which the IC50 fell in the range of 2 to 20 µM.

Take `CC(C)c1nc(-c2cccnc2)n(Cc2cccc3ccsc23)c1C(=O)O` [Compound A83, 1-(benzo[b]thiophen-7-ylmethyl)-4-isopropyl-2-(pyridin-3-yl)-1H-imidazole-5-carboxylic acid]: the “Inhibitory Activity” value is recorded as “* *”.

Turning to `O=C(O)c1c(C(F)(F)F)nc(-c2cncc(C(F)(F)F)c2)n1Cc1cc(Cl)ccc1Cl` [Compound A140, 1-(2,5-dichlorobenzyl)-4-(trifluoromethyl)-2-(5-(trifluoromethyl)pyridin-3-yl)-1H-imidazole-5-carboxylic acid], the “Inhibitory Activity” value is on record as “* * *”.

On to `CC(C)(O)c1nc(-c2cccnc2)n(Cc2cc(Cl)ccc2Cl)c1C(=O)O` [Compound A108, 1-(2,5-dichlorobenzyl)-4-(2-hydroxypropan-2-yl)-2-(pyridin-3-yl)-1H-imidazole-5-carboxylic acid], for which the “Inhibitory Activity” value is given as “* * *”.

`Cc1ccccc1Cn1c(-c2cccnc2)nc(C)c1C(=O)O` [Compound A57]: the IC50 fell in the range of 2 to 20 µM.

As to `Cc1nc(-c2cccnc2)n(Cc2ccccc2F)c1C(=O)O` [Compound A48], the IC50 fell in the range of 2 to 20 µM.

Turning to `Cc1nc(-c2ccc(Cl)nc2)n(Cc2cc(Cl)ccc2Cl)c1C(=O)O` [Compound A164, 2-(6-chloropyridin-3-yl)-1-(2,5-dichlorobenzyl)-4-methyl-1H-imidazole-5-carboxylic acid], the “Inhibitory Activity” value was “* *”.

`Cc1cncc(-c2ncc(C(=O)O)n2Cc2cc(Cl)ccc2Cl)c1` [Compound A206, 1-(2,5-dichlorobenzyl)-2-(5-methylpyridin-3-yl)-1H-imidazole-5-carboxylic acid]: the “Inhibitory Activity” value was “* * *”.

Turning to `Cc1nc(-c2cccnc2)n(Cc2sc(Cl)cc2Cl)c1C(=O)O` [Compound A80, 1-((2,4-dichlorothiophen-5-yl)methyl)-4-methyl-2-(pyridin-3-yl)-1H-imidazole-5-carboxylic acid], the “Inhibitory Activity” value was “* *”.

In the case of `CCc1nc(-c2cncc(F)c2)n(Cc2cccc3ccccc23)c1C(=O)O` [Compound A148, 4-ethyl-2-(5-fluoropyridin-3-yl)-1-(naphthalen-1-ylmethyl)-1H-imidazole-5-carboxylic acid], the “Inhibitory Activity” value is “* *”.

Regarding `Cc1nc(-c2cncc(Oc3ccccc3)c2)n(Cc2cccc3ccccc23)c1C(=O)O` [Compound A130, 4-methyl-1-(naphthalen-1-ylmethyl)-2-(5-phenoxypyridin-3-yl)-1H-imidazole-5-carboxylic acid], the “Inhibitory Activity” value is on record as “* *”.
